From ChEMBL document CHEMBL1201862, “PubChem BioAssay data set” (2004)
Active and inactive are the calls of the source.

Legend:
[1] = HepG2 cell cytotoxicity, dose response, cytotoxicity control, plate reader, cherry-pick, antagonist series (AID 743416); assay type: functional, cell-based
[2] = biological target: T1, Beta-galactosidase (Escherichia coli, UniProt Q8VNN2); assay type: functional
[3] = cells; assay type: functional
[4] = Vero E6 cell cytotoxicity, dose response, cytotoxicity control for non-replicating M. tuberculosis project, secondary assay (AID 492998); assay type: functional, VeroE6; settings: Vero C1008
[5] = HepG2 cell cytotoxicity, dose response, cytotoxicity control for non-replicating M. tuberculosis project (AID 489018); assay type: functional; settings: Mycobacterium tuberculosis
[6] = HEK293 cell cytotoxicity, dose response, cytotoxicity control, plate reader, cherry-picked samples (AID 743446); assay type: functional, cell-based
[7] = A549 cell cytotoxicity, dose response, cytotoxicity control, plate reader, cherry-pick, antagonist series (AID 743412); assay type: functional, cell-based
[8] = test system: Streptococcus; test: Group A Streptococcus viability loss, dose response, counter-screen for streptokinase expression inhibitor project, luminescence, BacTiterGlo (AID 1915); assay type: functional, organism-based;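 further: potency for reduction of bacterial viability or growth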
[9] = biological target: T2, Streptokinase A (Streptococcus pyogenes serotype M1, UniProt P10520); test: S. pyogenes streptokinase expression inhibitors, potency, dose response, plasminogen activation absorbance, OD405 (AID 1914); assay type: functional, Streptococcus pyogenes M1 GAS;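 further: secreted streptokinase activity via plasminogen activation per viability signal from cell pellet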
T2 sequence (P10520 whole entry): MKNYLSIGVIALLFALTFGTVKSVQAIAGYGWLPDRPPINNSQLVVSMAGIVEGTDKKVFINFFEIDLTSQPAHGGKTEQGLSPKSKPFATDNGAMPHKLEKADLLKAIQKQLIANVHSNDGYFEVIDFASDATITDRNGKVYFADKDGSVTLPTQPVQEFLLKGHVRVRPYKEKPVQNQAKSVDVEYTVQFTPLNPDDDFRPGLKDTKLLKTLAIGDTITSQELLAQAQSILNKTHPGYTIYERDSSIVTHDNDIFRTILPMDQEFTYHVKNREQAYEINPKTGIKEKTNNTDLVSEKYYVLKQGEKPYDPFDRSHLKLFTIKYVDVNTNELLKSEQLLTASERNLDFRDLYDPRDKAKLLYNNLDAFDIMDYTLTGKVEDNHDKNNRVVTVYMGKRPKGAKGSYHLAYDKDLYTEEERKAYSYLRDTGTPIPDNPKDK

[10] = biological target: T3, Kappa-type opioid receptor (Homo sapiens, UniProt P41145); assay type: functional
T3 sequence (P41145 whole entry): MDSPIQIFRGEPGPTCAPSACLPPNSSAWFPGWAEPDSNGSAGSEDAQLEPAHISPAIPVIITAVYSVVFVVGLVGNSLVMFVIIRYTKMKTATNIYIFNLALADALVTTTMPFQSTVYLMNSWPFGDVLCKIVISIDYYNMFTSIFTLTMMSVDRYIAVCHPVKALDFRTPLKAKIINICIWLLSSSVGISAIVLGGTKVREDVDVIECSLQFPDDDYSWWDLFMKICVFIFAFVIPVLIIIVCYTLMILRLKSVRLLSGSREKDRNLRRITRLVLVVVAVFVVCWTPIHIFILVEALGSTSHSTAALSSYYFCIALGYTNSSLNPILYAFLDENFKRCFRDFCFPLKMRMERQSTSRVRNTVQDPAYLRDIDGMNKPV

[11] = biological target: T1, Beta-galactosidase; test: PubChem AID 485352; assay type: functional
[12] = MC4R antagonists, dose response, counter-screen for LGR2 antagonist project, cell-based, plate reader, cherry pick (AID 743444); assay type: functional;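 further: transfected HEK 293 cells stimulated with alpha-MSH peptide; potency of inhibitors of the alpha-MSH evoked signal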
[13] = LGR2 antagonists, dose response, cell-based, HEK293, CRE-luciferase reporter, cherry pick, set 2 (AID 743343); assay type: functional;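 further: transfected cells were stimulated with diluted bursicon conditioned medium after compound addition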
[14] = THP-1 cell cytotoxicity, dose response, cytotoxicity control for non-replicating M. tuberculosis project (AID 489025); assay type: functional
[15] = test system: Streptococcus sp. 'group A'; test: growth inhibition of control SK(-) GAS strain, dose response, counter-screen for streptokinase expression inhibitor project, luminescence, kanamycin, BacTiterGlo, confirmation (AID 1900); assay type: functional, organism-based
[16] = biological target: T4, Type-1 angiotensin II receptor (Homo sapiens, UniProt P30556); test: AT1 receptor antagonists, dose response, selectivity assay for APJ receptor antagonist project, cell-based, uHTS hits (AID 463214); assay type: functional;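 further: antagonist potency against angiotensin II stimulated AT1 response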
T4 sequence (P30556 whole entry): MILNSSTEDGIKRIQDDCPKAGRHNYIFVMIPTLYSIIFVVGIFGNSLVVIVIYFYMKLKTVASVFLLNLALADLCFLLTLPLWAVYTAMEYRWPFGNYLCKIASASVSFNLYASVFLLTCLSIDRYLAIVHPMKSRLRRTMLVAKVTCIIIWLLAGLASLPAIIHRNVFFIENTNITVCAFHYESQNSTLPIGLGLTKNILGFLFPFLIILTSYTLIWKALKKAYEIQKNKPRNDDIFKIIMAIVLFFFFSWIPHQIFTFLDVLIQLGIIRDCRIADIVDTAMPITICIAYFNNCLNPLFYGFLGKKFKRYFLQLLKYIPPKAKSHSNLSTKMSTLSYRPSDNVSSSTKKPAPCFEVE

[17] = test system: INS1; test: beta cell apoptosis inhibitors, cytokine rescue, dose response, luminescence, retest (AID 449756); assay type: functional, cell-based; settings: Rattus norvegicus;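 further: cell death triggered by IL-1 beta plus TNF-alpha plus IFN-gamma mixture; protective hits raise ATP signal compared with cytokine alone wells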
[18] = biological target: T3, Kappa-type opioid receptor; assay type: functional; remark: listed apart in the source
[19] = biological target: T5, Coagulation factor XII (Homo sapiens, UniProt P00748); test: FXIIa inhibitor potency, concentration-response, biochemical (AID 716); assay type: functional
T5 sequence (P00748 whole entry): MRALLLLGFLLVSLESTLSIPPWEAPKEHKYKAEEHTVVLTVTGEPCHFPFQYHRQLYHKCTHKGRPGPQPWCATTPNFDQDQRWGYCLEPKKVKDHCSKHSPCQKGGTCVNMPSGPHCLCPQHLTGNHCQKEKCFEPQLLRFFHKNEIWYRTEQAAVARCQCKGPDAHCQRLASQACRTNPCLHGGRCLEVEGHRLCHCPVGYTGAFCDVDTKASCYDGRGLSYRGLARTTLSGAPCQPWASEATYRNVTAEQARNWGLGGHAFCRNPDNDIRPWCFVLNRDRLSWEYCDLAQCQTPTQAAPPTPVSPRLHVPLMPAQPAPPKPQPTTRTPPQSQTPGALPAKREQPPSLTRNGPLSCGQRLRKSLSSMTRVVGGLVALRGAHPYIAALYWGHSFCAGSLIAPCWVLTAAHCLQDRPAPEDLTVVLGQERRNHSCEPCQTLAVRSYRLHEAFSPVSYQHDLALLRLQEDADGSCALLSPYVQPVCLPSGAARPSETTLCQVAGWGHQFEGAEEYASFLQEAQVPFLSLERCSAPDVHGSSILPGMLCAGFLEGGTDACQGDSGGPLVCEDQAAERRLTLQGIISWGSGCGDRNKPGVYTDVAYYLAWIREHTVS

[20] = biological target: T6, Sphingosine 1-phosphate receptor 4 (Homo sapiens, UniProt O95977); test: Late-stage fluorescence dose response cell-based assay to identify agonists of the Sphingosine 1-Phosphate Receptor 4 (S1P4): purchased compounds EC50. [Related pubchem assays (depositor defined):AID1509, AID1523, AID1563, AID1686, AID1701, AID1801]; assay type: functional
T6 sequence (O95977 whole entry): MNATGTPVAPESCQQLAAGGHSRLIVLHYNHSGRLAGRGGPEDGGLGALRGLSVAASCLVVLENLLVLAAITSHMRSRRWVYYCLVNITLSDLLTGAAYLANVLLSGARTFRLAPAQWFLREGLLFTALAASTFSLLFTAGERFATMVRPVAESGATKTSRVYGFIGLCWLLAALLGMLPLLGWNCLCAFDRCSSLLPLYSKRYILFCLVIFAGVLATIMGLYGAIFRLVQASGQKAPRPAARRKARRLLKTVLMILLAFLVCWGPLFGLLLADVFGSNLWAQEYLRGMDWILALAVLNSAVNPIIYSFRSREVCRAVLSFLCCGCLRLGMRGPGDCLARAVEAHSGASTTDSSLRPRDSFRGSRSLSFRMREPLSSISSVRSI

[21] = biological target: T5, Coagulation factor XII; assay type: functional
[22] = Luminescence Cell-Based Dose Response HTS to Identify Inhibitors of 5'UTR Stem-Loop Driven Prion Protein mRNA Translation in H4 Neuroglioblastoma Cells. [Related pubchem assays: 1827 (Project Summary), 1813 (Primary HTS)]; assay type: functional
[23] = inhibitors of firefly luciferase expression or activity, dose response, H4 neuroglioma cells, luminescence (AID 1990); assay type: functional, cell-based
[24] = biological target: Paired box protein Pax-8 (Homo sapiens, UniProt Q06710); test: inhibitors of PAX8-driven TPO luciferase reporter, dose response, RMG-I cells, cherry-pick (AID 687027); assay type: functional, cell-based;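 further: luciferase reporter driven by Pax8 target thyroperoxidase promoter measured by SteadyGlo luminescence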
Paired box protein Pax-8, sequence (Q06710 whole entry): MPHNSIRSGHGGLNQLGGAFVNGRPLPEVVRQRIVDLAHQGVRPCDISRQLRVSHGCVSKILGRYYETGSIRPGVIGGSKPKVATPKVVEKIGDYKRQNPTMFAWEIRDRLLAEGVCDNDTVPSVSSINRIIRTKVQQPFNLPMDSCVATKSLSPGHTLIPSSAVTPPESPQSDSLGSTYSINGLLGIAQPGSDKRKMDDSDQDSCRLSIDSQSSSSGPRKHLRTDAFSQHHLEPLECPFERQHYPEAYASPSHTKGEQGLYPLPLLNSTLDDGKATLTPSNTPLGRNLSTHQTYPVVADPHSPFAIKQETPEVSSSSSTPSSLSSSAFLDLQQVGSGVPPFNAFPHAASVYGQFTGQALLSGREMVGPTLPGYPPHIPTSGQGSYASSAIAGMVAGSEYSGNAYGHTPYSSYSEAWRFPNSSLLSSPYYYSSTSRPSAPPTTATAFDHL

[25] = biological target: T7, X-box-binding protein 1 (Homo sapiens, UniProt P17861); assay type: functional, Cricetulus griseus;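 further: confirmatory dose-response counter-screen serving a CHOP assay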
T7 sequence (P17861 whole entry): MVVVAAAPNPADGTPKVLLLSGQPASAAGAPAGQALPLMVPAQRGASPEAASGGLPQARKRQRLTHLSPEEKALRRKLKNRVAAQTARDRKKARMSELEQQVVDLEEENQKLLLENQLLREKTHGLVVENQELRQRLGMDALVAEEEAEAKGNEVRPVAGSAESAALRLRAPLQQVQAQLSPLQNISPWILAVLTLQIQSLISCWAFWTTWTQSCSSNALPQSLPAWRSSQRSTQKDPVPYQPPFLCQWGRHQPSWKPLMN

[26] = inhibitors of SNCA 5'UTR-driven reporter translation, confirmation, H4 neuroglioma cells, luminescence (AID 1988); assay type: functional, cell-based
[27] = biological target: Phosphomannomutase 2 (Homo sapiens, UniProt O15305); test: Counter screen SAR assay for PMM2 inhibitors via a fluorescence intensity assay. [Related pubchem assays (depositor defined):AID1545, AID1574]
Phosphomannomutase 2, sequence (O15305 whole entry): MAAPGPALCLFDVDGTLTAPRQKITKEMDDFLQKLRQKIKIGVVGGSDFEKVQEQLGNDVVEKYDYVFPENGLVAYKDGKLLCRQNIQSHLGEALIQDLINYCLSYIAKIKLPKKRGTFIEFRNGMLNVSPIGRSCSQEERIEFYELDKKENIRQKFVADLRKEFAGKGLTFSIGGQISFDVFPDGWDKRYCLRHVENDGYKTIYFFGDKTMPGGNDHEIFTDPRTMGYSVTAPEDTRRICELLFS

T1 sequence (Q8VNN2 whole entry): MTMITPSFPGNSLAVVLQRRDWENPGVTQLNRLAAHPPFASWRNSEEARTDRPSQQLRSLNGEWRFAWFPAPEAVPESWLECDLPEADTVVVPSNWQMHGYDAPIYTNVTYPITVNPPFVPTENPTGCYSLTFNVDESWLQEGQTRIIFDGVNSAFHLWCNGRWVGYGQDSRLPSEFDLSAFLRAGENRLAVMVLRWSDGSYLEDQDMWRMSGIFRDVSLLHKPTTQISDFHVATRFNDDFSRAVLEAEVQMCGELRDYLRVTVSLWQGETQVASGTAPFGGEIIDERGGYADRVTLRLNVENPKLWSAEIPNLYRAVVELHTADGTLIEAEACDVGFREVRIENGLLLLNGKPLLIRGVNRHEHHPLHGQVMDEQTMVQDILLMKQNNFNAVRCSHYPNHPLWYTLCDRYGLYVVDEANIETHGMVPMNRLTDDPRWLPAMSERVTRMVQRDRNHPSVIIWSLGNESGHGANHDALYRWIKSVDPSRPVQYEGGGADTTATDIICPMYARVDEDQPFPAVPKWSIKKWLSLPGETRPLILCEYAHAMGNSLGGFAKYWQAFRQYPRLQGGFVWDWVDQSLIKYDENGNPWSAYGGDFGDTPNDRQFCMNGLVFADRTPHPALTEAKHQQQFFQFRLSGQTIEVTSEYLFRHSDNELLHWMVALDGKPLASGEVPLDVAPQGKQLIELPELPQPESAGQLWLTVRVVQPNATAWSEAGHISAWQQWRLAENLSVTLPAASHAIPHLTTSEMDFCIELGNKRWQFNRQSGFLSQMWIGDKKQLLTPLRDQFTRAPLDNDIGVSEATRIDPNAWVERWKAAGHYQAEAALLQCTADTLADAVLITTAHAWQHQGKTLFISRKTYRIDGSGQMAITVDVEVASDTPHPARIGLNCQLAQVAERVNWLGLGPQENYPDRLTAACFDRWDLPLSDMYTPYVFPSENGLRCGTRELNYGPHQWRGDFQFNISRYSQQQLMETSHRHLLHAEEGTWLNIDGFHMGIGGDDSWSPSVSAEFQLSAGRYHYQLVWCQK

Structure (SMILES): O=C(Nc1nc2ccc(F)cc2s1)c1ccccn1
- AC50 [1]: 10 µM (active)
- EC50 [2]: > 31.5 µM (inactive)
- IC50 [3]: < 0.1 µM (active)
- CC50 [4]: 3.18 µM (active)
- CC50 [5]: > 5 µM (active)
- AC50 [6]: 8.2 µM (active)
- AC50 [7]: 3.57 µM (active)
- EC50 [8]: 10.1 µM (active)
- EC50 [9]: > 150 µM (not active)
- IC50 [10]: 4.6 µM (active)
- EC50 [11]: > 40 µM (inactive)
- AC50 [12]: 1.61 µM (active)
- AC50 [13]: 1.21 µM (active)
- CC50 [14]: 0.982 µM (active)
- EC50 [15]: 2.5 µM (active)
- IC50 [16]: 3.96 µM (active)
- AC50 [17]: 2.72 µM (active)
- IC50 [18]: > 32 µM

Structure (SMILES): CCOCCn1c(SCCCc2ccccc2)nc2c1c(=O)[nH]c(=O)n2C
- IC50 [19]: > 50 µM (inactive)

Structure (SMILES): COc1ccc(OCCOc2ccc(C)nc2[N+](=O)[O-])cc1
- EC50 [20]: > 50 µM (inactive)

Structure (SMILES): O=S(=O)(N1CCCCC1)N1CCN(c2ccccc2F)CC1
- IC50 [21]: > 50 µM (inactive)

Structure (SMILES): CCSc1nc(-c2ccccc2)nc(C(Cl)Cl)n1
- EC50 [22]: 5.98 µM (active)
- EC50 [23]: > 120 µM (not active)
- AC50 [24]: 1.95 µM (active)
- Absolute IC50 (XBP1) [25]: 10 µM
- EC50 [26]: 1.11 µM (active)
- IC50 [27]: > 100 µM (inactive)
